In patent US8236844B2, “Histidine derivatives” (Nippon Zoki Pharmaceutical Co., Ltd., priority 2006, dated 2012):

Columns and labels:
[1] = tested on: mice; test: Single dose toxicity test by intraperitoneal administration to mice; type: in vivo, mouse (ddY strain); settings: intraperitoneal 250, 500 and 1,000 mg/kg
Procedure: A single dose toxicity test by intraperitoneal administration of the compounds of the present invention to mice was carried out. Male mice of ddY strain of four weeks age were made into groups of five mice so as to make mean body weight in each group nearly the same. The Compound 1 of the present invention as a test substance was intraperitoneally administered at the doses of 250 mg/kg, 500 mg/kg and 1,000 mg/kg.

[2] = tested on: SART stressed mouse; test: Test for analgesic effect (1): SART stressed mouse, modified Randall-Selitto tail pressure method; type: in vivo, mouse (ddY strain); settings: oral administration, peak after 30 minutes
[3] = tested on: mice; test: Test for analgesic effect (4): acetic acid writhing test; type: in vivo, mouse (ddY strain); settings: writhing numbers during 10 minutes
Procedure: The compounds of the present invention were orally administered to mice and a test for an analgesic effect was carried out by means of an acetic acid writhing test. As to the test animals, male mice of ddY strain of four weeks age were subjected to a preliminary breeding and they were used where one group comprised ten mice. Each of the compound of the present invention as a test substance was orally administered (10 mg/kg, 100 mg/kg) in a single dose while, to a control group, distilled water (water for injection) was administered similarly. After 25 minutes from the administration of the test substance, a 0.7% acetic acid/physiological saline was intraperitoneally administered at the dose of 10 mL/kg. From 5 minutes thereafter, writhing numbers during 10 minutes were counted and a suppressive rate for each mouse was calculated according to the following formula. Suppressive Rate(%)=[(Mean writhing numbers of the control group)−(Writhing numbers of each mouse)]÷[Mean writhing numbers of the control group]×100

[4] = tested on: Chung model rat; test: Test for analgesic effect (2)/(3): Chung model rat, von Frey allodynia measurement; type: in vivo, rat (Wistar strain); settings: for 50% reaction threshold value, Test substance administration group, Before admin.: baseline before intraperitoneal 400 μg/kg; for 50% reaction threshold value, Test substance administration group, After admin. for 30 minutes: intraperitoneal 400 μg/kg single dose, * P<0.05 Dunnett
Procedure: A test for analgesic effect was conducted using a Chung model rat which is a neuropathic pain model. As to the test animal, male rats of Wistar strain of nine weeks age were used and model rats were prepared in accordance with the method of Kim and Chung (Pain, vol. 50, pages 355 to 363, 1992). Thus, under anesthetization with pentobarbital (40 mg/kg, intraperitoneal administration), rat L5 spinal nerve was exposed and L5 dorsal root ganglion periphery side was strongly ligated using 5-0 silk yarn. The animals were placed in a transparent acrylate cage whose bottom was made of wire net, a 50% reaction threshold value was calculated by an up-down method using a von Frey filament (manufactured by North Coast Medical Inc.) according to the methods of Chaplan, et al. (J. Neurosci. Method, vol. 53, pages 55 to 63, 1994) and by Lee, et al. (J. Neurophysiol., vol. 81, pages 2226 to 2233, 1999) and measurement of allodynia was conducted. Before injury of spinal nerve, the 50% reaction threshold value was measured twice and the animals where the threshold value was outside the standard were excluded from the operation for spinal nerve injury. […] After 30 minutes from the administration of the test substance, allodynia was measured to calculate a 50% reaction threshold value. With regard to a significance test, Paired t-test was conducted for comparison between before and after the nerve injury and Dunnett's multiple comparison test was used for comparison among multiple groups of the nerve injury control group and the test substance administration group. […] After 30 minutes from administration of the test substance, measurement of allodynia was conducted to calculate the 50% reaction threshold value.

[5] = tested on: rats; test: Hyperalgesia in osteoarthritis model induced by monoiodoacetic acid into joints of rats; type: in vivo, rat; settings: oral administration of 1 mg/kg
[6] = tested on: rats; test: Formalin pain test for rats, second phase; type: in vivo, rat; settings: oral administration of 100 mg/kg
[7] = tested on: SART stressed mouse; test: Test for analgesic effect (1): SART stressed mouse, modified Randall-Selitto tail pressure method; type: in vivo, mouse (ddY strain)
Procedure: Loading of SART (Specific Alternation of Rhythm in Temperature) stress or repetitive cold stress was conducted in accordance with a method of Kita, et al. (Nippon Yakurigaku Zasshi, Vol. 71, pages 195 to 210, 1975). In a constant-temperature vessel for breeding, a breeding environment temperature for male mice of ddY strain was alternately changed at 4° C. and 24° C. every one hour from 10 a.m. until 5 p.m. and kept at 4° C. from 5 p.m. to 10 a.m. of the next morning. Breeding was conducted for 5 days where water and feed were freely taken by the mice so as to load a repetitive cold stress and, after that, the mice were subjected to the test. Before and after 30 minutes from administration of the test substance, analgesic threshold value was measured by a modified Randall-Selitto method (Tail pressure method; Nippon Yakurigaku Zasshi, Vol. 72, pages 573 to 584, 1976). Thus, Using a Randall-Selitto analgesic effect measuring device where a pressing piece was modified for mouse tail, a pressure stimulation was applied at the rate of 16 g/second to the site which was 1.5 cm to the front end from tail root of the mouse and pressurized weight (g) showing an escaping or squeaking reaction was measured and adopted as a pain threshold value. […] A value (analgesic coefficient) where the pain threshold of the test substance administration group was divided by the pain threshold of the SART control group was calculated and the analgesic effect of the test substance was confirmed. Thus, when the test substance had no effect at all, said value was 1.0 and, as the effect became stronger, the value of the analgesic coefficient increased as 1.1, 1.2 and 1.3. Significant difference between the two groups was determined by a statistic processing of the pain threshold values and the analgesic coefficient was calculated as a mean value of the pain threshold values.
As to the test animals, male mice of ddY strain of four weeks age (one group comprised ten mice) were used. The compound of the present invention as a test substance was administered at a dose of 25 ng or 50 ng per mouse into the lateral ventricle whereupon its analgesic effect was measured.
Further, when the Compound 1 of the present invention was intraperitoneally administered (100 μg/kg), the pain threshold value in the SART control group was […] while, in the test substance administration group, it was 97.8 g (analgesic coefficient: 1.24) whereby a significant improving effect for hyperalgesia was noted.

[8] = 25 ng per mouse into the lateral ventricle, 30 minutes after administration, pain threshold of test group / SART control group
[9] = 30 minutes after administration
[10] = 50 ng per mouse into the lateral ventricle, 30 minutes after administration, pain threshold of test group / SART control group

| SMILES | Suppressive Rate ([3]; oral 10 mg/kg single dose) [%] | Suppressive Rate ([3]; oral 100 mg/kg single dose) [%] | Analgesic coefficient [7, 8] | 50% reaction threshold value, Test substance administration group, Before admin. [4] [g] | 50% reaction threshold value, Test substance administration group, After admin. for 30 minutes [4, 9] | further results |
| --- | --- | --- | --- | --- | --- | --- |
| C=CC(=O)N[C@@H](Cc1cncn1C)C(=O)O [Compound 1, N(α)-acryloyl-N(π)-methyl-L-histidine] | 33.1 | 53.8 | 1.33 |  |  | changes in the body weight compared with the control group [1]: no significant difference; abnormal observation during the observation period ([1]; 14 days): no abnormal observation was noted; death ([1]; 14 days): no death case was noted; autopsied organs and tissues observed by naked eye ([1]; after 14 days): no abnormal case was found at all; analgesic action (in words) ([2]; 3 and 10 mg/kg): significant analgesic action; ED50 value determined from the improving rate at peak of action [2]: 2.7 mg/kg; 50% reaction threshold value ([4]; intraperitoneal 100 μg/kg single dose, 30 minutes after administration): 9.60 g; anti-allodynia action (in words) ([4]; oral administration 10 mg/kg, peak after 30 minutes): significant anti-allodynia action; ED50 value determined from the improving rate at the peak of the action ([4]; oral administration, peak after 30 minutes): 2.4 mg/kg; analgesic effect on hyperalgesia (in words) [5]: significant analgesic effect; analgesic action against pain reaction in the second phase (in words) [6]: significant analgesic action; Analgesic coefficient ([7]; intraperitoneal 100 μg/kg): 1.24; pain threshold value ([7]; intraperitoneal 100 μg/kg, test substance administration group): 97.8 g |
| C=CC(=O)N[C@@H](Cc1cncn1CC)C(=O)O [Compound 2, N(α)-acryloyl-N(π)-ethyl-L-histidine] |  | 27.6 |  | 2.69 ± 0.39 | 5.98 ± 0.52* g | Analgesic coefficient [7, 10]: 1.18 |
| CC=CC(=O)N[C@@H](Cc1cncn1C)C(=O)O [Compound 3, N(α)-crotonoyl-N(π)-methyl-L-histidine] |  |  | 1.23 |  |  |  |
| CC=CC(=O)N[C@@H](Cc1cncn1CC)C(=O)O [Compound 4, N(α)-crotonoyl-N(π)-ethyl-L-histidine] | 32.9 |  |  |  |  |  |
| CC(C)=CC(=O)N[C@@H](Cc1cncn1C)C(=O)O [Compound 5, N(α)-3-methylcrotonoyl-N(π)-methyl-L-histidine] | 17.8 |  |  |  |  |  |
| Cn1cncc1C[C@H](NC(=O)C=Cc1ccccc1)C(=O)O [Compound 6, N(α)-3-phenylpropenoyl-N(π)-methyl-L-histidine] |  | 23.5 | 1.17 | 2.69 ± 0.33 | 6.43 ± 1.52* g |  |
| CC=C(C)C(=O)N[C@@H](Cc1cncn1C)C(=O)O [Compound 7, N(α)-2-methyl-2-butenoyl-N(π)-methyl-L-histidine] |  | 36.1 | 1.31 | 2.71 ± 0.24 | 9.88 ± 1.59* g |  |
| CCn1cncc1C[C@H](NC(=O)C=C(C)C)C(=O)O [Compound 9, N(α)-3-methylcrotonoyl-N(π)-ethyl-L-histidine] |  | 38.0 |  |  |  |  |
| CCn1cncc1C[C@H](NC(=O)C=Cc1ccccc1)C(=O)O [Compound 10, N(α)-3-phenylpropenoyl-N(π)-ethyl-L-histidine] | 27.7 |  | 1.14 |  |  |  |
| CC=C(C)C(=O)N[C@@H](Cc1cncn1CC)C(=O)O [Compound 11, N(α)-2-methyl-2-butenoyl-N(π)-ethyl-L-histidine] | 36.1 |  |  |  |  |  |
| C=CC(=O)N[C@@H](Cc1cncn1C(C)C)C(=O)O [Compound 13, N(α)-acryloyl-N(π)-isopropyl-L-histidine] |  |  |  |  |  | Analgesic coefficient [7, 10]: 1.31 |
| Cc1ccc(C=CC(=O)N[C@@H](Cc2cncn2C)C(=O)O)cc1 [Compound 16, N(α)-3-(4-methylphenyl)acryloyl-N(π)-methyl-L-histidine] |  | 30.3 |  |  |  |  |
| C=CC(=O)N[C@@H](Cc1cncn1Cc1ccccc1)C(=O)O [Compound 27, N(α)-acryloyl-N(π)-benzyl-L-histidine] | 37.9 |  |  | 2.58 ± 0.26 | 7.32 ± 1.32* g |  |
| C=C(C)C(=O)N[C@@H](Cc1cncn1C)C(=O)O [Compound 30, N(α)-methacryl-N(π)-methyl-L-histidine] |  |  |  | 2.63 ± 0.23 | 4.30 ± 0.46* g |  |
| NCCC(=O)N[C@@H](Cc1cnc[nH]1)C(=O)O [carnosine, β-ananyl-L-histidine, reference compound] |  |  |  |  |  | analgesic action (in words) ([7]; administration into the lateral ventricle): no significant analgesic action |
